Data published in patent publication US20260001889A1, “COMPOSITIONS USEFUL FOR MODULATING SPLICING” (Skyhawk Therapeutics, Inc., priority 2022, published 2026).

Test system: ATXN3-HiBiT protein
Experiment: ATXN3 Total Protein Assay (Kelly-ATXN3-HiBiT luminescence)
Type: cell-based
Details: Kelly-ATXN3-HiBiT cells, 48 h after addition of compound
Description: Example 36: ATXN3 Total Protein Assay
To monitor ATXN3 protein levels by luminescence, a Kelly-ATXN3-HiBiT cell line with homozygous knock-in of HiBiT at the C-terminus of the endogenous ATXN3 gene was used (knock-in of the HiBiT-tag coding sequence SEQ ID NO. 14: 5′[…]3′ into exon 11 of ATXN3-position 1114 of ATXN3 RefSeq NM_004993.6). Manipulations of the Kelly-ATXN3-HiBiT cell line that result in downregulation of the ATXN3-HiBiT protein (through modulation of ATXN3-HiBiT pre-mRNA splicing) can be followed by monitoring the luminescence signal of the HiBiT tag using the Nano Glo HiBiT Lytic Detection System (Promega, #N3050). Kelly-ATXN3-HiBiT cells were maintained in RPMI 1640 w/Glutamax (Gibco, #61870010), 10% FBS (Sigma Aldrich, #F8687), 1% Penicillin/Streptomycin (Gibco, #15140-122) at 37° C., 5% CO2. To assess HiBiT-luminescence signal upon compound treatment, 2000 Kelly-ATXN3-HiBiT cells were seeded per well in 384 plate format. Compounds were added 24 h after seeding. ATXN3-HiBiT-luminescence signal was read out 48 h after addition of the compound using the Nano Glo HiBiT Lytic Detection System (Promega, #N3050) according to the manufacturer's instructions. To control for cell viability, an identically prepared sister plate was read out with the CellTiter-Glo® 2.0 Assay (Promega, #G9243) according to the manufacturer's instructions. Fold changes of ATXN3-HiBiT-luminescence and of CellTiter-Glo viability signals were calculated relative to a DMSO control condition.

SMILES | EC50
Cc1c(CC(N)CC2(F)CC2)oc2c(NCc3cccs3)cc(Cl)nc12 (centres unmarked) [Compound 67, 2-[2-amino-3-(1-fluorocyclopropyl)propyl]-5-chloro-3-methyl-7-thenylamino-1-oxa-4-azaindene] | 101 to 500 nM
Cc1c(C[C@@H](N)CC2(F)CC2)oc2c(NCc3cccs3)cc(Cl)nc12 [Compound 68, 2-[(R)-2-amino-3-(1-fluorocyclopropyl)propyl]-5-chloro-3-methyl-7-thenylamino-1-oxa-4-azaindene] | 501 to 5000 nM
Cc1c(C[C@H](N)CC2(F)CC2)oc2c(NCc3cccs3)cc(Cl)nc12 [Compound 69, 2-[(S)-2-amino-3-(1-fluorocyclopropyl)propyl]-5-chloro-3-methyl-7-thenylamino-1-oxa-4-azaindene] | 0.01 to 100 nM
Cc1c(CC(N)CC2COC2)oc2c(NCc3cccs3)cc(Cl)nc12 (centres unmarked) [Compound 70, 2-[2-amino-3-(3-oxetanyl)propyl]-5-chloro-3-methyl-7-thenylamino-1-oxa-4-azaindene] | 10000 to 40000 nM
Cc1c(CC(N)CC2(F)COC2)oc2c(NCc3cccs3)cc(Cl)nc12 (centres unmarked) [Compound 73, 2-[2-amino-3-(3-fluoro-3-oxetanyl)propyl]-5-chloro-3-methyl-7-thenylamino-1-oxa-4-azaindene] | 10000 to 40000 nM
N[C@@H](Cc1oc2c(NCc3cccs3)cc(Cl)nc2c1Br)CC1(F)CC1 [Compound 86, 2-[(S)-2-amino-3-(1-fluorocyclopropyl)propyl]-3-bromo-5-chloro-7-thenylamino-1-oxa-4-azaindene] | 501 to 5000 nM
N[C@H](Cc1oc2c(NCc3cccs3)cc(Cl)nc2c1Br)CC1(F)CC1 [Compound 87, 2-[(R)-2-amino-3-(1-fluorocyclopropyl)propyl]-3-bromo-5-chloro-7-thenylamino-1-oxa-4-azaindene] | 101 to 500 nM
COC1([C@H](N)Cc2oc3c(NCc4cccs4)cc(Cl)nc3c2Br)CC1 [Compound 144, 2-[(R)-2-amino-2-(1-methoxycyclopropyl)ethyl]-3-bromo-5-chloro-7-thenylamino-1-oxa-4-azaindene] | 10000 to 40000 nM
N[C@@H](CCOC(F)(F)F)Cc1oc2c(NCc3cccs3)cc(Cl)nc2c1Br [Compound 146, 2-[(S)-2-amino-4-trifluoromethoxybutyl]-3-bromo-5-chloro-7-thenylamino-1-oxa-4-azaindene] | 0.01 to 100 nM
COCC[C@H](N)Cc1oc2c(NCc3cccs3)cc(Cl)nc2c1Br [Compound 147, 2-[(S)-2-amino-4-methoxybutyl]-3-bromo-5-chloro-7-thenylamino-1-oxa-4-azaindene] | 0.01 to 100 nM
N#CC[C@H](N)Cc1oc2c(NCc3cccs3)cc(Cl)nc2c1Br [Compound 155, (S)-3-amino-4-(3-bromo-5-chloro-7-thenylamino-1-oxa-4-aza-2-indenyl)butyronitrile] | 501 to 5000 nM
N[C@@H](COCC(F)F)Cc1oc2c(NCc3cccs3)cc(Cl)nc2c1Br [Compound 182, 2-[(R)-2-amino-3-(2,2-difluoroethoxy)propyl]-3-bromo-5-chloro-7-thenylamino-1-oxa-4-azaindene] | 0.01 to 100 nM
N[C@H](Cc1oc2c(NCc3cccs3)cc(Cl)nc2c1Br)C[C@@H]1CC1(F)F [Compound 183, 2-{(S)-3-[(R)-2,2-difluorocyclopropyl]-2-aminopropyl}-3-bromo-5-chloro-7-thenylamino-1-oxa-4-azaindene] | 101 to 500 nM
N[C@H](Cc1oc2c(NCc3cccs3)cc(Cl)nc2c1Br)C[C@H]1CC1(F)F [Compound 184, 2-{(S)-3-[(S)-2,2-difluorocyclopropyl]-2-aminopropyl}-3-bromo-5-chloro-7-thenylamino-1-oxa-4-azaindene] | 101 to 500 nM
CC(=O)NC[C@H](N)Cc1oc2c(NCc3cccs3)cc(Cl)nc2c1Br [Compound 219] | 0.01 to 100 nM
C[C@H](N)C(F)(F)c1oc2c(NCc3nccs3)cc(Cl)nc2c1Br [Compound 223, 2-[(S)-2-amino-1,1-difluoropropyl]-3-bromo-5-chloro-7-{[(1,3-thiazol-2-yl)methyl]amino}-1-oxa-4-azaindene] | 101 to 500 nM
N[C@@H](CO)C(F)(F)c1oc2c(NCc3nccs3)cc(Cl)nc2c1Br [Compound 224, (S)-2-amino-3-(3-bromo-5-chloro-7-{[(1,3-thiazol-2-yl)methyl]amino}-1-oxa-4-aza-2-indenyl)-3,3-difluoro-1-propanol] | 501 to 5000 nM
[2H][C@@](C)(N)Cc1oc2c(NCc3cccs3)cc(Cl)nc2c1Br [Compound 229, 2-[(S)-2-amino(2-2H)propyl]-3-bromo-5-chloro-7-thenylamino-1-oxa-4-azaindene] | 0.01 to 100 nM

SMILES | EC50
[2H]C([2H])([2H])C(N)Cc1oc2c(NCc3cccs3)cc(Cl)nc2c1Br (centres unmarked) [Compound 230, 2-[2-amino(3,3,3-^2H3)propyl]-3-bromo-5-chloro-7-thenylamino-1-oxa-4-azaindene] | 0.01 to 100 nM
[2H]C([2H])([2H])[C@H](N)Cc1oc2c(NCc3cccs3)cc(Cl)nc2c1Br [Compound 231, 2-[(S)-2-amino(3,3,3-2H3)propyl]-3-bromo-5-chloro-7-thenylamino-1-oxa-4-azaindene] | 0.01 to 100 nM
[2H]C([2H])([2H])[C@@H](N)Cc1oc2c(NCc3cccs3)cc(Cl)nc2c1Br [Compound 232, 2-[(R)-2-amino(3,3,3-^2H3)propyl]-3-bromo-5-chloro-7-thenylamino-1-oxa-4-azaindene] | 101 to 500 nM
[2H]C([2H])([2H])OC[C@H](N)Cc1oc2c(NCc3cccs3)cc(Cl)nc2c1C#C [Compound 233, 2-[(R)-2-amino-3-(2H3)methoxypropyl]-5-chloro-3-ethynyl-7-thenylamino-1-oxa-4-azaindene] | 0.01 to 100 nM
[2H]C([2H])(Nc1cc(Cl)nc2c(Br)c(C[C@]([2H])(C)N)oc12)c1cccs1 [Compound 234, 2-[(S)-2-amino(2-2H)propyl]-3-bromo-5-chloro-7-{[(2-thienyl)(^2H2)methyl]amino}-1-oxa-4-azaindene] | 0.01 to 100 nM
N#CC[C@H](N)Cc1oc2c(NCc3ccco3)cc(Cl)nc2c1Br [Compound 235, (S)-3-amino-4-[3-bromo-5-chloro-7-(furfurylamino)-1-oxa-4-aza-2-indenyl]butyronitrile] | 501 to 5000 nM
C#Cc1c(C[C@@H](N)COC2CC2)oc2c(NCc3cccs3)cc(Cl)nc12 [Compound 244, 2-[(R)-2-amino-3-cyclopropoxypropyl]-5-chloro-3-ethynyl-7-thenylamino-1-oxa-4-azaindene] | 0.01 to 100 nM
[2H]C([2H])(Nc1cc(Cl)nc2c(Br)c(C[C@@H](N)COC(F)(F)F)oc12)c1cccs1 [Compound 246, 2-[(R)-2-amino-3-trifluoromethoxypropyl]-3-bromo-5-chloro-7-{[(2-thienyl)(^2H2)methyl]amino}-1-oxa-4-azaindene] | 101 to 500 nM
C#Cc1c(C[C@@H](N)CO)oc2c(NCc3cccs3)cc(Cl)nc12 [Compound 248, (R)-2-amino-3-(5-chloro-3-ethynyl-7-thenylamino-1-oxa-4-aza-2-indenyl)-1-propanol] | 0.01 to 100 nM
[2H]C([2H])([2H])OC[C@H](N)Cc1oc2c(NC([2H])([2H])c3cccs3)cc(Cl)nc2c1Br [Compound 249, 2-[(R)-2-amino-3-(^2H3)methoxypropyl]-3-bromo-5-chloro-7-{[(2-thienyl)(^2H2)methyl]amino}-1-oxa-4-azaindene] | 0.01 to 100 nM
[2H]C([2H])([2H])OC[C@H](N)Cc1oc2c(NC([2H])([2H])c3cccs3)cc(Cl)nc2c1C#C [Compound 250, 2-[(R)-2-amino-3-(^2H3)methoxypropyl]-5-chloro-3-ethynyl-7-{[(2-thienyl)(^2H2)methyl]amino}-1-oxa-4-azaindene] | 0.01 to 100 nM
[2H]C([2H])([2H])OC[C@H](N)Cc1oc2c(NCc3cccs3)cc(Cl)nc2c1Cl [Compound 264, 2-[(R)-2-amino-3-(^2H3)methoxypropyl]-3,5-dichloro-7-thenylamino-1-oxa-4-azaindene] | 0.01 to 100 nM
[2H]C([2H])([2H])OC[C@H](N)Cc1oc2c(NCc3ccco3)cc(Cl)nc2c1Cl [Compound 265, 2-[(R)-2-amino-3-(^2H3)methoxypropyl]-3,5-dichloro-7-(furfurylamino)-1-oxa-4-azaindene] | 0.01 to 100 nM
C#Cc1c(C[C@@H](N)CCOC)oc2c(NCc3cccs3)cc(Cl)nc12 [Compound 266, 2-[(S)-2-amino-4-methoxybutyl]-5-chloro-3-ethynyl-7-thenylamino-1-oxa-4-azaindene] | 0.01 to 100 nM
[2H]C([2H])([2H])OCC[C@H](N)Cc1oc2c(NCc3cccs3)cc(Cl)nc2c1Br [Compound 267, 2-[(S)-2-amino-4-(^2H3)methoxybutyl]-3-bromo-5-chloro-7-thenylamino-1-oxa-4-azaindene] | 101 to 500 nM
[2H][C@@](C)(N)Cc1oc2c(NCc3cccs3)cc(Cl)nc2c1C#C [Compound 268, 2-[(S)-2-amino(2-^2H)propyl]-5-chloro-3-ethynyl-7-thenylamino-1-oxa-4-azaindene] | 0.01 to 100 nM
[2H]C([2H])([2H])C(N)Cc1oc2c(NCc3cccs3)cc(Cl)nc2c1C#C (centres unmarked) [Compound 269, 2-[2-amino(3,3,3-^2H3)propyl]-5-chloro-3-ethynyl-7-thenylamino-1-oxa-4-azaindene] | 0.01 to 100 nM
